Entries after “also recorded” stand apart in the source; their conditions may differ.
Experiments:
[1] = molecular target: T1, wild-type Akt1 (Homo sapiens, UniProt P31749); set-up: method as in earlier work; settings: ref 6a; cited from earlier work
T1 construct: made in house

[2] = molecular target: T2, Akt1 (Homo sapiens, UniProt P31749); experiment: HTRF KinEASE assay, IC50 against Akt1; settings: for IC50: mean ± SD, n=3
Text: (§1) The homogeneous time‐resolved fluorescence (HTRF®) KinEASE™ assay by Cisbio was used to determine the half‐maximal inhibitory concentration (IC50) values of the synthesised compounds against Akt1, Akt2 and Akt3 (Table 1).[26]
(§2) The HTRF® KinEASE™ assay (Cisbio) was used to determine the IC 50 values of the synthesised
(§3) al. (Akt2 and Akt3).1,5 The three wild-type Akt isoforms used were acquired from ProQinase.

[3] = system: KU-19-19 cells; experiment: CellTiter-Glo Luminescent Cell Viability Assay, KU-19-19; type: cell-based; settings: Homo sapiens, bladder cancer cell line, Akt1 E17K/E49K, mean ± SD, n=3
Experimental: The potential in vitro antiproliferative activity of the synthesised target compounds was investigated against a number of cancer cell lines by the CellTiter‐Glo® Luminescent Cell Viability Assay (from Promega Corporation, USA, catalogue number: G7570). The half‐maximal effective concentrations (EC50) of these compounds were determined against the AN3‐CA, BT‐474, KU‐19‐19, MCF‐7, T‐47D and ZR‐75‐1 cell lines originating from various tissues, i. e., breast, endometrium and bladder (Table S1). […]
The CellTiter-Glo® Luminescent Cell Viability Assay from Promega was used for the cellular assays, performed as explained by Weisner et al.7,8 Information on the cancer cell lines are given in Table S1, the control compounds used in Figure S3 and the results in Table S2.
Table S1. The cell lines used for the cellular assays, including what cancer type they are predominantly found in, and where the cell lines were acquired form.
Cell line Cancer type Acquired from AN3CA Endometrium ATCC (provided by Prof. Jan G. Hengstler at Leibniz-Institut für Arbeitsforschung Dortmund)
KU-19-19 Bladder Deutsche Sammlung von Mikroorganismen und Zellkulturen […]
BT-474 CLS Cell Lines Service (provided by Prof. Jan G. Hengstler at […] Leibniz-Institut für Arbeitsforschung Dortmund)

[4] = molecular target: Akt3 (Homo sapiens, UniProt Q9Y243); experiment: HTRF KinEASE assay, IC50 against Akt3
Text: as §1, §2, §3

[5] = molecular target: T3, Akt2 (Homo sapiens, UniProt P31751); experiment: HTRF KinEASE assay, IC50 against Akt2; type: biochemical; settings: wild-type Akt2; mean ± SD, n=3
T3 construct: purchased ProQinase
Text: as §1, §2, §3

[6] = system: ZR-75-1 cells; experiment: CellTiter-Glo Luminescent Cell Viability Assay, ZR-75-1; type: cell-based; settings: Homo sapiens, ZR-75-1; breast cancer cell line; mean ± SD, n=3; read-out: EC50 ZR‐75‐1
[7] = system: MCF-7 cells; experiment: CellTiter-Glo Luminescent Cell Viability Assay, MCF-7; type: cell-based; settings: Homo sapiens, MCF7; breast cancer cell line; mean ± SD, n=3; read-out: EC50 MCF‐7
[8] = system: BT-474 cells; experiment: CellTiter-Glo Luminescent Cell Viability Assay, BT-474; type: cell-based; settings: Homo sapiens, BT-474; breast cancer cell line; mean ± SD, n=3; read-out: EC50 BT‐474
[9] = molecular target: T1, wild-type Akt1; experiment: LC-MS identification of covalent binders after co-incubation with Akt1; type: binding; settings: co-incubation with Akt1, Figure S1
Text: 2. Evaluation results … 4
4. Molecular Modelling … 57
indicated covalent binding.

[10] = system: T47D cells; experiment: CellTiter-Glo Luminescent Cell Viability Assay, T47D; type: cell-based; settings: Homo sapiens, breast cancer cell line, mean ± SD, n=3
[11] = molecular target: T2, Akt1; experiment: Kinetic analysis with HTRF KinEASE (time-dependent IC50), kinetic parameters of inactivation; type: biochemical; set-up: purchased ProQinase; settings: mean ± SD, n=3; for Ki: inhibition constant of inactivation
Text: The kinetic parameters of inactivation, namely the inhibition constant (K I) and the rate constant of enzyme inactivation (k inact), are therefore preferentially used to describe irreversible inhibitors.[28] K I is defined as the concentration of inhibitor required for half of the maximum potential rate of covalent bond formation, while k inact is defined as the maximum potential rate of covalent bond formation.[29] The ratio of k inact over K I, k inact/K I, accounts for both the potency of the inhibitor (K I) and the maximum potential rate of covalent bond formation (k inact) and thus represents the second‐order rate constant describing the efficiency of covalent complex formation.[29] Using a protocol published by Krippendorff et al., K I and k inact can be directly estimated from time‐dependent IC50 determinations by kinetic analysis with HTRF® KinEASE™.[28]
Using a protocol published by Krippendorff et al., KI, kinact and kinact/KI could be directly
estimated from time-dependent IC50 determinations by kinetic analysis with HTRF® KinEASE™,

[12] = system: AN3CA cells; experiment: CellTiter-Glo Luminescent Cell Viability Assay, AN3CA; type: cell-based; settings: Homo sapiens, AN3-CA; endometrium cancer cell line; mean ± SD, n=3; read-out: EC50 AN3CA
[13] = IC50, Akt1, repeated in Table 2 for comparison

Akt3, sequence (Q9Y243 whole entry): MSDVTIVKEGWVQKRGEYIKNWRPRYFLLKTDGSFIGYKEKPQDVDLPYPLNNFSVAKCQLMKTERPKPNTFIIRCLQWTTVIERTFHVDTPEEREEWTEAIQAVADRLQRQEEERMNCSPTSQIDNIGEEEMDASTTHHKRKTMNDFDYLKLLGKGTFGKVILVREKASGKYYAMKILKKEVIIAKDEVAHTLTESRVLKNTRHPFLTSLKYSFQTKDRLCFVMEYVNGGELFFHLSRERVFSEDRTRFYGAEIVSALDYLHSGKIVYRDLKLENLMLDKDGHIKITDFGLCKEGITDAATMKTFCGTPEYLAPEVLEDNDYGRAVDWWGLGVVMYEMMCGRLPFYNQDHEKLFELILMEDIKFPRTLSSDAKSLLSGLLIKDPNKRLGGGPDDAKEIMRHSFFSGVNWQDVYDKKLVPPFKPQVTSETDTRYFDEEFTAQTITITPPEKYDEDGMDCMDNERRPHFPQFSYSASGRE
T3 sequence (P31751 whole entry): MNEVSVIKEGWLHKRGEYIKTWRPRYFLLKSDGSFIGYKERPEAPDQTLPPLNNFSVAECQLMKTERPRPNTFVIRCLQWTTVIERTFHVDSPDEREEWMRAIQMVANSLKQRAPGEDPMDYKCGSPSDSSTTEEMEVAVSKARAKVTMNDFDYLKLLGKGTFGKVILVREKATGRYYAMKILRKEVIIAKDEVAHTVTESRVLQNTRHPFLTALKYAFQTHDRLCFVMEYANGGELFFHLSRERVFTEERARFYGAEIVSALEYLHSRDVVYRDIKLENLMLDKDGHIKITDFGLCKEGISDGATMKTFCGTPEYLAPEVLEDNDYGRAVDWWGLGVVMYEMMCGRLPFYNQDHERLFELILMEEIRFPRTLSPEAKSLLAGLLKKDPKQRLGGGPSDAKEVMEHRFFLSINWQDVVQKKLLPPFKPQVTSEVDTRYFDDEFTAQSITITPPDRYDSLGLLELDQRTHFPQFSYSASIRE
T1 sequence (P31749 whole entry): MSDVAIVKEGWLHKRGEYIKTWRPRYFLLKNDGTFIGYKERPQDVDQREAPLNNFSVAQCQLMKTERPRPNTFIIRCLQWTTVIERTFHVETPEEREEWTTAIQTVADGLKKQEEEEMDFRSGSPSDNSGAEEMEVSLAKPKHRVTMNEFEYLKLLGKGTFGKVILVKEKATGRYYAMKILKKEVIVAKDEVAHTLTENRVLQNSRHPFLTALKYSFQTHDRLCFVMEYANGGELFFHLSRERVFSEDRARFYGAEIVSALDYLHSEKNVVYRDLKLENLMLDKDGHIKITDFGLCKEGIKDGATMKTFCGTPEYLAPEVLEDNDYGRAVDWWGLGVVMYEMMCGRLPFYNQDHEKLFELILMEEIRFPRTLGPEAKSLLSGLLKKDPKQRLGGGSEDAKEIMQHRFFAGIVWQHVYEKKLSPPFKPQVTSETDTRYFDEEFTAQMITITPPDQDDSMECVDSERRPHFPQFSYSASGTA
T2 sequence (P31749 whole entry): as above

| Structure (SMILES) | IC50 ([2]; Akt1, repeated in Table 2 for comparison) [µM] | IC50 [4] [µM] | IC50 [5] [µM] | EC50 [7] [µM] | EC50 [8] [µM] | covalent binding to Akt1 (mass increase by LC-MS) [9] | EC50 [10] [µM] | IC50 ([2]; IC50 Akt1, wild-type Akt1) [µM] | decrease in activity against Akt1 compared to control compound 2 ([2]; IC50 ratio to borussertib (2)) | covalent binding to Akt1, previously identified [1] | EC50 [3] [µM] | EC50 [6] [µM] | Ki [11] [µM] | k inact [11] [min⁻¹] | k inact/K I [11] [M⁻¹ s⁻¹] | EC50 [12] [µM] | melting point [°C] | IC50 [2, 13] [µM] |
| --- | --- | --- | --- | --- | --- | --- | --- | --- | --- | --- | --- | --- | --- | --- | --- | --- | --- | --- |
| C=CC(=O)Nc1cccc(-c2cn(C3CCN(Cc4ccc(-c5nc6ccc(C)cn6c5-c5ccccc5)cc4)CC3)nn2)c1 [Compound 10, N ‐[3‐(1‐{1‐[4‐(6‐Methyl‐3‐phenylimidazo[1,2‐a]pyridin‐2‐yl)benzyl]piperidin‐4‐yl}‐1H‐1,2,3‐triazol‐4‐yl)phenyl]acrylamide] |  | > 20 | > 20 | 6.73 ± 3.48 | 22.8 ± 3 | partial covalent binders | 9.18 ± 4.72 | 4.63 ± 0.244 |  |  | 17.3 ± 7.97 | 3.32 ± 3.11 |  |  |  | 5.61 ± 2.85 | 217 to 219 |  |
| C=CC(=O)Nc1ccc2[nH]c(=O)n(C3CCN(Cc4ccc(-c5nc6ccccn6c5-c5ccccc5)cc4)CC3)c2c1 [Compound 11, N ‐(2‐Oxo‐3‐{1‐[4‐(3‐phenylimidazo[1,2‐a]pyridin‐2‐yl)benzyl]piperidin‐4‐yl}‐2,3‐dihydro‐1H‐benzo[d]imidazol‐5‐yl)acrylamide] |  | > 20 | 2.56 ± 0.578 | 1.1 ± 0.689 | 0.971 ± 0.301 | covalent binders | 0.364 ± 0.087 | 0.034 ± 0.02 |  |  | 12.8 ± 1.61 | 0.081 ± 0.011 | 0.0272 ± 0.0026 | 0.069 ± 0.004 | 43000 ± 6000 | 1.03 ± 0.21 | 221 to 223 | 0.0341 ± 0.0204 |
| C=CC(=O)Nc1ccc(-c2cn(C3CCN(Cc4ccc(-c5nc6ccccn6c5-c5ccccc5)cc4)CC3)nn2)cc1 [Compound 5, N ‐[4‐(1‐{1‐[4‐(3‐Phenylimidazo[1,2‐a]pyridin‐2‐yl)benzyl]piperidin‐4‐yl}‐1H‐1,2,3‐triazol‐4‐yl)phenyl]acrylamide] |  | > 20 | > 20 | 3.39 ± 0.348 | 6.99 ± 2.37 | no indication of covalent binding | 3.79 ± 1.94 | 2.88 ± 1.73 |  |  | 9.83 ± 1.6 | 3.54 ± 0.44 |  |  |  | 5.44 ± 1.56 |  |  |
| C=CC(=O)Nc1cc2c(cc1Cl)[nH]c(=O)n2C1CCN(Cc2ccc(-c3nc4ccccn4c3-c3ccccc3)cc2)CC1 [Compound 12, N ‐(6‐Chloro‐2‐oxo‐3‐{1‐[4‐(3‐phenylimidazo[1,2‐a]pyridin‐2‐yl)benzyl]piperidin‐4‐yl}‐2,3‐dihydro‐1H‐benzo[d]imidazol‐5‐yl)acrylamide] |  | > 20 | 5.59 ± 1.52 | 4.23 ± 2.4 | 3.76 ± 1.38 | covalent binders | 1.5 ± 0.903 | 0.029 ± 0.005 |  |  | 23.5 ± 6.7 | 0.227 ± 0.057 | 0.0247 ± 0.0018 | 0.081 ± 0.008 | 55000 ± 9000 | 3.57 ± 1.22 | 80 to 82 | 0.0286 ± 0.0053 |
| C=CC(=O)Nc1ccccc1-c1cn(C2CCN(Cc3ccc(-c4nc5ccccn5c4-c4ccccc4)cc3)CC2)nn1 [Compound 4, N ‐[2‐(1‐{1‐[4‐(3‐Phenylimidazo[1,2‐a]pyridin‐2‐yl)benzyl]piperidin‐4‐yl}‐1H‐1,2,3‐triazol‐4‐yl)phenyl]acrylamide] |  | > 20 | > 20 | 8.55 ± 1.25 | 15.4 ± 6.13 | partial covalent binders; also recorded: partial labelling | 15.2 ± 3.25 | 0.925 ± 0.277 |  |  | 29.4 ± 9.59 | 1.75 ± 0.428 |  |  |  | 12.3 ± 3.48 |  |  |

The next lines start with results.

| IC50 ([2]; Akt1, repeated in Table 2 for comparison) [µM] | IC50 [4] [µM] | IC50 [5] [µM] | EC50 [7] [µM] | EC50 [8] [µM] | covalent binding to Akt1 (mass increase by LC-MS) [9] | EC50 [10] [µM] | IC50 ([2]; IC50 Akt1, wild-type Akt1) [µM] | decrease in activity against Akt1 compared to control compound 2 ([2]; IC50 ratio to borussertib (2)) | Structure (SMILES) | covalent binding to Akt1, previously identified [1] | EC50 [3] [µM] | EC50 [6] [µM] | Ki [11] [µM] | k inact [11] [min⁻¹] | k inact/K I [11] [M⁻¹ s⁻¹] | EC50 [12] [µM] | melting point [°C] | IC50 [2, 13] [µM] |
| --- | --- | --- | --- | --- | --- | --- | --- | --- | --- | --- | --- | --- | --- | --- | --- | --- | --- | --- |
| 0.372 ± 0.0485 | > 20 | > 20 | 4.29 ± 1.13 | 8.27 ± 0.862 | quantitative protein labelling | 4.07 ± 1.61 |  |  | C=CC(=O)Nc1cccc(-c2cn(C3CCN(Cc4ccc(-c5nc6ccccn6c5-c5ccccc5)cc4)CC3)nn2)c1 [Compound 3, N ‐[3‐(1‐{1‐[4‐(3‐Phenylimidazo[1,2‐a]pyridin‐2‐yl)benzyl]piperidin‐4‐yl}‐1H‐1,2,3‐triazol‐4‐yl)phenyl]acrylamide] | covalent binder | 12.4 ± 2.88 | 2.17 ± 0.517 | 0.497 ± 0.107 | 0.071 ± 0.006 | 2000 ± 1000 | 4.75 ± 1.54 |  |  |
|  |  |  | 0.329 ± 0.225 | 0.469 ± 0.162 | covalent binders | 0.088 ± 0.031 | 0.007 ± 0.0018 | less than 10 fold | C=CC(=O)Nc1cccc(-c2cn(C3CCN(Cc4ccc(-c5nc6cc[nH]c(=O)c6cc5-c5ccccc5)cc4)CC3)nn2)c1 [Compound 13, N ‐[3‐(1‐{1‐[4‐(5‐Oxo‐3‐phenyl‐5,6‐dihydro‐1,6‐naphthyridin‐2‐yl)benzyl]piperidin‐4‐yl}‐1H‐1,2,3‐triazol‐4‐yl)phenyl]acrylamide] |  | 5.65 ± 1.49 | 0.02 ± 0.007 | 0.0105 ± 0.0008 | 0.042 ± 0.012 | 66000 ± 15000 | 0.425 ± 0.058 | 252 to 254 | 0.007 ± 0.0018 |
